Structures can show the parent of a compound that is named as a salt.
Tested on: radiation-induced emesis
Test: radiation-induced emesis in the ferret
Type: in vivo
Details: whole body irradiation 2 Grey, dose 0.3 mg/kg s.c. immediately after irradiation
Description: In this model of emesis the onset of retching and vomiting occurs approximately 20 minutes after whole body irradiation (2 Grey.ident.200 Rads). The test compound is administered (e.g. i.p, p.o., i.v., s.c) immediately after irradiation and its effect on emesis determined by comparison with appropriate controls.

`Cc1nnnn1-c1cc(CN[C@H]2CCCN[C@H]2c2ccccc2)c2occc2c1` [Example 1, [5-(5-Methyl-tetrazol-1-yl)-benzofuran-7-ylmethyl]-(2S-phenyl-piperidin-3S-yl)-amine dihydrochloride] was tested, and the “inhibition of radiation-induced emesis” value was “inhibited radiation-induced emesis”.

Reference: patent publication US5935972A, “Benzofuran derivatives as tachykinin antagonists” (Glaxo Group Limited, priority 1997, dated 1999)
